Test results reported in a melting point compilation (Tetko et al.; mined from patent text by program, amines drawn as free bases though some values may be those of a salt).

First: CC(C)c1ccc(N(Cc2ccc(N(C)C)cc2)C(=O)C2CCCc3ccccc32)cc1 (configuration not stated)
Second: CN(C)c1ccc(C(=O)C(F)c2cccc(Cl)c2)cc1 (configuration not stated)
The melting point of the first is higher: 121 °C for the first, 90 to 92 °C for the second.

First: Cc1cc(I)ccc1NC1=CC2=NCN(C)C2=CC1(F)C(=O)NN (configuration not stated)
Second: O=C(c1ccc(F)c(F)c1Nc1ccc(I)cc1F)N1CC(O)CO1 (configuration not stated)
The melting point of the first is higher: 232 to 234 °C for the first, 122 to 124 °C for the second.

Compared with `CN(C)Cc1cc(C(=O)c2ccc(F)cc2)cc(C(C)(C)C)c1O`, `O=C(O)Cc1c(C(=O)c2ccc(F)cc2)[nH]c2cc(Cl)ccc12` is higher in melting point: 112 to 113 °C for the first, 181 to 183 °C for the second.

First: O=C(Nc1cccc2c1C(=O)N(CCC(=O)N1CCN(c3ccncc3)CC1)C2=O)c1ccc(Cl)s1
Second: O=C1c2cccc3c(Cl)ccc(c23)C(=O)N1CCN1CCC(c2noc3cc(F)ccc23)CC1
The melting point of the first is lower: 167 °C for the first, 207 to 209 °C for the second.

First: CC(C)(C)c1cc(OCCCCc2nnn[nH]2)cc(C(C)(C)C)c1
Second: CCCCOc1c(CNC(=O)OC(C)(C)C)n(CC(C)C)c(=O)c2ccc(C(N)=S)cc12
The melting point of the first is lower: 140 to 141 °C for the first, 189 to 190 °C for the second.

Compared with `O=C(c1cc(Cl)ccc1O)c1cc(Cl)ccc1O`, `N#Cc1ccc(-c2ccc(O)c(C(=O)O)c2)cc1` is higher in melting point: 154 °C for the first, 227 °C for the second.

First: O=C(O)CCCCCOc1ccc(CCc2ccncc2)cc1
Second: CCOC(=O)c1ccc(NCCCCCCOc2ccccc2)cc1
The melting point of the first is higher: 180 to 182 °C for the first, 105 to 108 °C for the second.

First: O=C(NO)c1ccc(CNC(=O)c2[nH]c(-c3cccs3)cc2-c2ccc(F)cc2)nc1
Second: CS(=O)(=O)c1ccc(-c2cc(-c3csc(N)n3)sc2-c2ccc(F)cc2)cc1
The melting point of the first is lower: 151 to 152 °C for the first, 243 to 245 °C for the second.

First: CCCCP(=O)(C(=O)c1c(C)cc(C)cc1C)C(=O)c1c(OC)cccc1OC (configuration not stated)
Second: Cc1ccc(Oc2cccc(CC(=O)O)c2N)cc1C
The melting point of the first is higher: 94 to 96 °C for the first, 90 to 92 °C for the second.

Compared with `COc1cccc2cc(C(=O)c3ccc(Cl)c(N)c3)oc12`, `COc1ccc(C(=O)Nc2ccc(F)cc2)cc1Nc1ccccc1` is lower in melting point: 180 °C for the first, 151 to 152 °C for the second.

Compared with `CCCCCCCc1c(C(=O)OCC)[nH]c(C)c1C`, `CCCC1=C(C(=O)OCC)C(c2ccccc2OC(C)C)c2c[nH]nc2N1` (configuration not stated) is higher in melting point: 68 to 69 °C for the first, 210 °C for the second.

First: COc1cc(NC(C)=O)c(Cl)cc1C(=O)NC1CC2CCCCN2C1 (configuration not stated)
Second: CNC(=O)c1ccccc1Nc1nc(Nc2ccc3c(c2)COCC2CCCCN32)ncc1Cl (configuration not stated)
The melting point of the first is lower: 151 to 153 °C for the first, 220 to 221 °C for the second.

First: O=C1OC(=O)c2c(Sc3ccc(Cl)c(Cl)c3)cc([N+](=O)[O-])cc21
Second: O=C1c2ccc(Cl)cc2C(=O)N1c1ccc([N+](=O)[O-])cc1Cl
The melting point of the first is lower: 154 to 157 °C for the first, 209 to 212 °C for the second.

Compared with `CCOC(=O)c1nn(-c2ccc(CP(=O)(OCC)OCC)cc2)nc1C`, `CCOP(=O)(OCC)C(Nc1nocc1C)P(=O)(OCC)OCC` is higher in melting point: 60 to 62 °C for the first, 68 to 69 °C for the second.

First: CCOC(C)OC(CCOc1ccc([N+](=O)[O-])cc1)C(F)(F)F (configuration not stated)
Second: Cc1c[nH]c(-c2ccc(OCC(O)CNC(C)(C)C)cc2)n1 (configuration not stated)
The melting point of the first is lower: 81 °C for the first, 202 to 203 °C for the second.

Compared with `N[C@@H](Cc1c[nH]c2ccccc12)c1nc2c(C(F)(F)F)cccc2c(O)c1C(=O)Nc1nccs1`, `Nc1cccc(-n2c(=O)c3c(Cc4ccccc4)n[nH]c3c3cccnc32)c1` is higher in melting point: 190 °C for the first, 277 to 279 °C for the second.

First: CCCn1c(-c2ccccc2)nc2cc(C(=O)O)ccc21
Second: CC(=O)OCCn1c(=O)sc2ccc(-c3nc4ccccn4c3C)cc21
The melting point of the first is higher: 223 °C for the first, 113 to 115 °C for the second.

Compared with `COC(=O)C=CC(CNC(=O)C(C)(Cc1c[nH]c2ccccc12)NC(=O)OC1C2CC3CC(C2)CC1C3)c1ccccc1` (configuration not stated), `COc1cc(OC)c([N+](=O)[O-])c(C(=O)NC2CCN(C(c3ccccc3)c3ccccc3)CC2)c1` is higher in melting point: 80 to 93 °C for the first, 148 to 150 °C for the second.

First: CSc1ccc(N)c(C(=O)NN)c1
Second: Nc1ccccc1Sc1ccc([N+](=O)[O-])cc1[N+](=O)[O-]
The melting point of the first is lower: 124 to 127 °C for the first, 151 to 152 °C for the second.

First: COc1cccc([C@H]2O[C@H](CC(=O)Nc3nc(C)c(C(=O)OC(C)(C)C)s3)C(=O)N(CC(C)(C)COC(C)=O)c3ccc(Cl)cc32)c1OC
Second: Cc1cc(C)c2cccc(OCc3c(Cl)ccc(S(=O)(=O)N4CCC[C@H]4C(=O)NCCCNC(=O)c4ccc(C=NN)cc4)c3Cl)c2n1
The melting point of the first is higher: 211 to 213 °C for the first, 178 to 180 °C for the second.

First: CC(C)(C)Oc1cccc(C[C@@H](C(=O)O)[C@@H](O)c2ccc(F)cc2)c1 (racemic)
Second: CC(=O)c1ccc(-c2ccc(F)cc2)c([N+](=O)[O-])c1
The melting point of the first is higher: 131 to 132 °C for the first, 88 to 90 °C for the second.

First: COc1ccc(C=C(C(=O)C2CC2)C(=O)C2CC2)cc1
Second: COC(=O)CCc1ccc(NC(=O)NNC=O)cc1
The melting point of the first is lower: 60.5 to 61.5 °C for the first, 146 to 148 °C for the second.

Compared with `CCOc1nc(OCC)c2cscc2n1`, `CCCCOc1nc2ccnn2c2ncccc12` is higher in melting point: 84 to 86 °C for the first, 99.8 °C for the second.

Compared with `COC(COC(=O)C1=C(C)NC2=C(C(=O)CNC2)C1c1cccc(Cl)c1)c1ccccc1` (configuration not stated), `CCOC(=O)C1=C(c2ccccc2)Nc2n[nH]cc2C1c1cccc(Cl)c1Cl` (configuration not stated) is higher in melting point: 165 to 167 °C for the first, 214 °C for the second.

Compared with `O=C(O)c1csc2ccc(O)cc12`, `CCn1c(=O)c(CC(=O)OC)cc2ccc(O)cc21` is lower in melting point: 262 to 263 °C for the first, 176 to 178 °C for the second.

First: COc1cc(OC)cc(N2CCN(C(=S)Nc3cc(C(C)O)c(C)cc3OC)CC2)c1 (configuration not stated)
Second: COc1cc(C(C)C)c2c(c1)S(=O)(=O)N(COC(=O)c1cc(C)no1)C2=O
The melting point of the first is lower: 146 to 148 °C for the first, 157 to 158 °C for the second.

First: O=C(O)C=CC(=O)NCCCCCCCCCCCCCCCCCC(=O)O
Second: CCCCCCCCCCCCNC(=S)NCCCCCCCCCCCC
The melting point of the first is higher: 144 to 148 °C for the first, 75 to 78 °C for the second.

Compared with `CCCc1nc(C(OCC)OCC)cc(NC(c2ccccc2)(c2ccccc2)c2ccccc2)c1F`, `CCOc1ccc2c(c1)n(-c1ccccn1)c(=O)n2S(=O)(=O)c1ccc(NC(=O)N(CC)CC)cc1OC` is higher in melting point: 111 to 112 °C for the first, 171 °C for the second.

Compared with `CC(C)(C)c1ccc(O)c(CO)c1`, `CC1(C)OC(=O)C(CO)(c2ccc(Cl)cc2Cl)O1` (configuration not stated) is higher in melting point: 65 to 85 °C for the first, 182 to 185 °C for the second.

First: O=S(=O)(c1ccccc1)C1CCCO1 (configuration not stated)
Second: CSC1CC(=O)N1CC(=O)CS(=O)(=O)c1ccccc1 (configuration not stated)
The melting point of the first is lower: 55.9 to 56.8 °C for the first, 82 to 84 °C for the second.

First: CCc1ccc(Sc2nn(-c3ccc(OC)cc3)c(=O)c(C#N)c2C)cc1
Second: COc1ccc2nc3c(c(-c4ccc(F)cc4)c2c1)CNC3=O
The melting point of the first is lower: 159 to 160 °C for the first, 284 to 286 °C for the second.

First: COc1ccc2c(c1)C(=O)N(C)CC(CCCl)O2 (configuration not stated)
Second: CCC(=O)c1ccc2c(c1)OCC(=O)N2
The melting point of the first is lower: 98 to 100 °C for the first, 174 to 176 °C for the second.

First: Cc1cc(C)cc(-c2cn(C(C)C)c3ccccc23)c1
Second: CCOC(=O)c1cnc2c3ccccc3c(CC)cn2c1=O
The melting point of the first is lower: 60 to 62 °C for the first, 161 to 163 °C for the second.

First: COc1ccc(OC)c(Sc2nc3c(N)ncnc3n2CCC=C(C)C)c1
Second: COCOCc1nc(N)c2ncc(OC)nc2n1
The melting point of the first is lower: 148 to 150 °C for the first, 193 to 195 °C for the second.

First: COc1cc2c(cc1CCCCN1CCCC1)[nH]c1cc(-c3ccccc3Cl)c3c(c12)C(=O)NC3=O
Second: CNC(=O)c1ccccc1Nc1nc(Nc2ccc3c(c2)OCCN(C)C3=O)ncc1Cl
The melting point of the first is lower: 173 to 178 °C for the first, 288 to 289 °C for the second.

First: CSc1cc2ncnc(Cl)c2s1
Second: Cn1ncnc1COc1nn2c(-c3ccccc3)nnc2cc1-c1ccc(Cl)s1
The melting point of the first is lower: 138 to 140 °C for the first, 244 to 247 °C for the second.

Compared with `CCOC(=O)C(=C(c1ccc(F)cc1)c1ccc(F)cc1)n1nnnc1C`, `Cc1c(C)c2c(c(C)c1N)CC(C)(CCc1ccc(F)cc1)O2` (configuration not stated) is lower in melting point: 103 to 104 °C for the first, 62 to 63 °C for the second.

First: COc1ccc(I)cc1C=O
Second: N#CCOS(=O)(=O)c1cccc([N+](=O)[O-])c1
The melting point of the first is higher: 140 to 142 °C for the first, 66 to 69 °C for the second.

Compared with `N#Cc1c(Cl)cccc1C(Cl)(Cl)Cl`, `COC(=O)C(C#N)=Cc1cccs1` is lower in melting point: 121 to 122 °C for the first, 104 to 106 °C for the second.

First: O=C(CCl)Nc1nc(-c2ccccc2)cs1
Second: CC(C)c1csc(/C=C/c2cc(NC(=O)Cc3ccccc3C(=O)O)ccc2Cl)n1
The melting point of the first is lower: 179 to 181 °C for the first, 204 to 206 °C for the second.

Compared with `COC(=O)/C=C/[C@H]1[C@@H](C(=O)OCc2cnc(Oc3ccccc3)s2)C1(C)C`, `CC(=O)NCC(=NNC(N)=S)c1ccccc1` is higher in melting point: 62 °C for the first, 208 to 211 °C for the second.

First: O=C(O)CCCc1cc2cc(Cl)ccc2n1S(=O)(=O)c1ccc2ncsc2c1
Second: O=C(NC1CCN(CCCc2ccc(F)cc2)CC1)C1=Cc2cnc3cccc(n23)S1
The melting point of the first is lower: 74 to 80 °C for the first, 117 to 119 °C for the second.

First: COc1cc(OC)nc(CC(=O)O)n1
Second: Cc1ccc(C(=O)O)c(Nc2ccc3[nH]ncc3c2)n1
The melting point of the first is lower: 175 to 177 °C for the first, 252 to 254 °C for the second.

First: C[C@H]1CCCN(C(=O)[C@H]2Cc3cc(N4CCCCC4)ccc3N2c2cccnn2)C1
Second: Cc1cccc(N2CCN(CCCCCC(=O)N3Cc4ccccc4C3)CC2)c1C#N
The melting point of the first is higher: 226 to 228 °C for the first, 126 °C for the second.

Compared with `O=C(C=Cc1ccc(Cl)c(Cl)c1)C1C(=O)CCC1=O`, `O=C1C2=CSCCN2C(=O)N1c1ccc(Cl)cc1` is lower in melting point: 190 to 191 °C for the first, 155 to 158 °C for the second.

First: O=C(NCC1CC1)c1ccc(F)c2c1CC(N(CCCc1c[nH]c3ccc(F)cc13)C1CCC1)CO2 (configuration not stated)
Second: C[C@H](CO)CN1CCC(c2noc3cc(F)ccc23)CC1
The melting point of the first is lower: 114 °C for the first, 119 to 121 °C for the second.

First: CC(=O)SC[C@H](NC(=O)C(C)C)C(=O)NCCSC(=O)C(C)C
Second: CCCc1c(OCCCCC(=O)NCCCCc2cccnc2)ccc(C(C)=O)c1O
The melting point of the first is higher: 100 to 102 °C for the first, 76 to 78 °C for the second.

Compared with `O=C(NCc1cccnc1)C1CCCCC1`, `Cc1noc(-c2ccccc2NC(=O)OC2CCNCC2)n1` is higher in melting point: 90 °C for the first, 141 to 142 °C for the second.

First: CC#CC(C)(C)NC(=O)C(OCC)Oc1cc(Cl)cc(Cl)c1 (configuration not stated)
Second: Cc1ccc(Br)cc1Cn1c(C(F)F)nn(C)c1=O
The melting point of the first is lower: 76.5 °C for the first, 108 °C for the second.

First: O=C1N=C(N2CCOCC2)SC1c1cncc(-c2cc(F)c(O)c(C34CC5CC(CC(C5)C3)C4)c2)c1 (configuration not stated)
Second: O=c1nc(-c2cccc(Cl)c2)c2cc(C(c3ccc(Cl)cc3)n3ccnc3-c3ccccc3)ccc2[nH]1 (configuration not stated)
The melting point of the first is higher: 310 to 317 °C for the first, 170 °C for the second.

First: COc1c(C)cc2c(c1C)C(c1ccc(C(C)C)cc1)C(C)(C)O2 (configuration not stated)
Second: Nc1nc2c(ncn2CC(CO)CCO)c(=O)[nH]1 (configuration not stated)
The melting point of the first is lower: 121 to 123 °C for the first, 235 °C for the second.
